Source: US20180344702A1, “METHODS FOR TREATING PATIENTS WITH HEMATOLOGIC MALIGNANCIES” (Aptose Biosciences, Inc., priority 2017, published 2018)

Columns and labels:
wild-type BTK = target: T1, wild-type BTK (Homo sapiens, UniProt Q06187); experiment: BTK phosphorylation in transfected HEK293T cells (Western blot); type: cell-based; details: HEK293T transfected with wild-type BTK; 0.5 and 1.0 μM, six hours
T1 construct: expressed in transfected cells; host or cells: HEK293T
Method: (§1) HEK293T cells were transiently transfected with wild-type BTK or C481S BTK. The transfected cells were treated with or without Compound 7 (0.5 and 1.0 μM) for six hours. This was performed in triplicate and the results were analyzed by Western Blot analysis.

C481S BTK = target: T2, C481S BTK (Homo sapiens, UniProt Q06187, C481S); experiment: as above; type: cell-based; details: HEK293T transfected with C481S BTK; 0.5 and 1.0 μM, six hours
T2 construct: expressed in transfected cells; host or cells: HEK293T
T2 sequence (Q06187 whole entry C481S): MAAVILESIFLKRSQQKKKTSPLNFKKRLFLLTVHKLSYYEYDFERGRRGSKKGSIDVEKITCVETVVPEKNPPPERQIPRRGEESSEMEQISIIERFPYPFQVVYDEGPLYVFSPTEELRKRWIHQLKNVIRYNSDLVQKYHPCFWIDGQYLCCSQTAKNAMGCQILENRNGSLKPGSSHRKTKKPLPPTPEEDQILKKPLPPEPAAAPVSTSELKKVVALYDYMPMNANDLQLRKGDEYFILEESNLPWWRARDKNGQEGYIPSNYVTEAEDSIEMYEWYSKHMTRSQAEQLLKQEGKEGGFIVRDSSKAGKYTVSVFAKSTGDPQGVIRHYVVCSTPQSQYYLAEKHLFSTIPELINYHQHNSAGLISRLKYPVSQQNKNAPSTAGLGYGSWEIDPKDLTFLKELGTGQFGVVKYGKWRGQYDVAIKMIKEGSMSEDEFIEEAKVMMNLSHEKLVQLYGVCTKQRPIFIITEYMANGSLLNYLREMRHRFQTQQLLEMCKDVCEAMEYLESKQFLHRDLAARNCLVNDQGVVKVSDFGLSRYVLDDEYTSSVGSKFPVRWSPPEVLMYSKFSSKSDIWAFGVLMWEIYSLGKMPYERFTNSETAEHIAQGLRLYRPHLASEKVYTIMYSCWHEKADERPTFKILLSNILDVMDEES
Method: as §1

[1] = test system: Ba/F3-ITD + D835Y (FLT3-ITD + D835Y); experiment: Antiproliferative activity (Table 6); type: cell-based, Murin; details: 72 h
Kasumi-1 (FLT3-WT) = experiment: Antiproliferative activity (Table 6); type: cell-based; details: Homo sapiens, Kasumi 1, 72 h
[2] = test system: MV4-11 (FLT3-ITD, t(4:11)); experiment: Antiproliferative activity (Table 6); type: cell-based; details: Homo sapiens, MV4-11, 72 h
FLT3(ITD) = FLT3(ITD) (Homo sapiens, UniProt P36888); experiment: Binding constant (Kd), competition binding with qPCR readout; set-up: other: FLT3(ITD); kinase-tagged T7 phage strains were prepared in an E. coli host derived from the BL21 strain; fused on or other part: T7 phage fusion or DNA tag for qPCR detection
[3] = test system: Ba/F3 cells transfected with FLT3 ITD-F691L; experiment: Cytotoxicity in isogenic transfected Ba/F3 cells (Table 4); type: cell-based, Murin; details: Mus musculus, BaF3, read-out: IC50 in Transfected Ba/F3 cells, FLT3 ITD-F691L
Ba/F3-D835G (FLT3-D835G) = experiment: Antiproliferative activity (Table 6); type: cell-based, Murin; details: 72 h
Ramos [4] = experiment: Cytotoxicity, MTS cell viability; type: cell-based; details: Homo sapiens, 72 h, Burkitt's, 3 days MTS
Method: Cells were seeded in a 96 well plate and treated with either vehicle (DMSO) or compound 7 at 10 different concentrations for 3 days at 37° C. and 5% CO2. Cell viability was assessed using CellTiter 96 AQueous one solution (MTS Promega Cat#G3581), and IC50 values calculated using GraphPad Prism 7 software.
(§2) Cytotoxicity procedure: Cells were seeded in 96-well plate and treated with vehicle DMSO or Compound 7 at a specified concentration and incubated for 72 hours.

Mino cells = experiment: Polyploidy in B-cell lines (Edu and PI staining, FACS); type: cell-based, human; details: 0.1 and 1.0 nM
Method: (§3) Further mechanistic studies were undertaken to fully elucidate Compound 7's potent cytotoxicity. B-cell lines were treated with vehicle or Compound 7 for 24-72 hours and the increase in DNA content or polyploidy phenotype was assessed using Edu and PI staining followed by FACS analysis using the BD Accuri C6 flow cytometer.
(§4) Mino and Ramos cell lines were treated with increasing concentrations of.

FLT3(D835H) = target: T3, FLT3(D835H) (Homo sapiens, UniProt P36888, D835H); experiment: Binding constant (Kd), kinase-tagged phage / affinity bead competition binding with qPCR readout
T3 construct: made in house; host or cells: E. coli BL21-derived host (T7 phage) or HEK-293

EGFR = EGFR (Homo sapiens, UniProt P00533); experiment: Key off-targets (Table 8); type: biochemical
Sequence of EGFR (P00533 25-1210): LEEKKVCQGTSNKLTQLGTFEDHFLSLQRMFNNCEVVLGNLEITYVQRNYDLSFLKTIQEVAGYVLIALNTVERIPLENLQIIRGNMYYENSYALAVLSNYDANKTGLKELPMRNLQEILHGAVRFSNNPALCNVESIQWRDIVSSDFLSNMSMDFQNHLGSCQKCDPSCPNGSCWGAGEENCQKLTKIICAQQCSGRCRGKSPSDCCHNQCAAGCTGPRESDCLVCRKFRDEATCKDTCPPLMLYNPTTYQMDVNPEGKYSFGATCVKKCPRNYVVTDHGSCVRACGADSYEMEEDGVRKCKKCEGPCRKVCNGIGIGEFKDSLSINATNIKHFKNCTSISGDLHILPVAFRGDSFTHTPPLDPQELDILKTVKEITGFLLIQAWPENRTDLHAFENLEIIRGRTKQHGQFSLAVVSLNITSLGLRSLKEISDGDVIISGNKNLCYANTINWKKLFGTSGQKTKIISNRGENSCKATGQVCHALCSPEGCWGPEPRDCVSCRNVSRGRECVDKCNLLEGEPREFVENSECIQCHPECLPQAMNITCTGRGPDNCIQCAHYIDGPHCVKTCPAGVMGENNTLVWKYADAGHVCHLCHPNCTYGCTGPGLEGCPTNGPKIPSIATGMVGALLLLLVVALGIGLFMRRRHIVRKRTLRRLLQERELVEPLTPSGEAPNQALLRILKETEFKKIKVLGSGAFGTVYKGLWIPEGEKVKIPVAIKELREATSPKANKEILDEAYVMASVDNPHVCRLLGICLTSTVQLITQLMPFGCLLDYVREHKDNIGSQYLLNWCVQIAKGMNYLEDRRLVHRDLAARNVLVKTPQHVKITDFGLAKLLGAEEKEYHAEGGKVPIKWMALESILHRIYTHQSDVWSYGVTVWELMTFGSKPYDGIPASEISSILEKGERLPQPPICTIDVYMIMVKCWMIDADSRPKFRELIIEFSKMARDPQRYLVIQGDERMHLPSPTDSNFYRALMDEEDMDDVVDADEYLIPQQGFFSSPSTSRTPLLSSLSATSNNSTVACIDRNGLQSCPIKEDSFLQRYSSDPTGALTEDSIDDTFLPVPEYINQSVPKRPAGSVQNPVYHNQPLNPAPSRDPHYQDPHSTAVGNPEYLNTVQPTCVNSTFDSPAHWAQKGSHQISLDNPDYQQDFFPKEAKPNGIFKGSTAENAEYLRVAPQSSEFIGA

[5] = test system: Aurora kinase in Mino, Ramos and SU-DHL6; experiment: Aurora kinase inhibition in B-cell lines (Western blot); type: cell-based; details: FIGS. 13A-13C
Method: Inhibition of Aurora kinase activity was measured by western blotting for phosphorylation levels of Aurora kinases or and down-stream targets and by cell cycle and DNA content analysis. Whole cell extracts from Compound 7 treated cells were resolved by gel electrophoresis and transferred to nitrocellulose membranes and inhibition of Aurora kinase A/B and H3S10 phosphorylation was detected with specific antibodies. DNA synthesis and cell cycle phase was assessed by staining compound 7 of vehicle treated cells with 5-ethynyl-2′deoxyuridine (Edu) Alexa Fluor 488 and PI.

EOL-1 = experiment: Cytotoxicity, MTS cell viability; type: cell-based; details: Homo sapiens, EOL1, AML, 72 hour MTS
Method: as §2

Jurkat = experiment: Cytotoxicity, MTS cell viability; type: cell-based; details: Homo sapiens, ALL, 72 hour MTS
Method: as §2

MV4-11 = experiment: Cytotoxicity, MTS cell viability; type: cell-based; details: Homo sapiens, AML, 72 hour MTS
Method: as §2

KG-1 = experiment: Cytotoxicity, MTS cell viability; type: cell-based; details: Homo sapiens, AML, 72 hour MTS
Method: as §2

SKM-1 = experiment: Cytotoxicity, MTS cell viability; type: cell-based; details: Homo sapiens, AML, 72 hour MTS
Method: as §2

HL60 = experiment: Cytotoxicity, MTS cell viability; type: cell-based; details: Homo sapiens, HL-60, AML, 72 hour MTS
Method: as §2

NOM0-1 = experiment: Cytotoxicity, MTS cell viability; type: cell-based; details: AML, 72 hour MTS
Method: as §2

HEL92.1.7 = experiment: Cytotoxicity, MTS cell viability; type: cell-based; details: Homo sapiens, HEL 92.1.7, AML, 72 hour MTS
Method: as §2

MUTZ-8 = experiment: Cytotoxicity, MTS cell viability; type: cell-based; details: AML, 72 hour MTS
Method: as §2

THP-1 = experiment: Cytotoxicity, MTS cell viability; type: cell-based; details: Homo sapiens, AML, 72 hour MTS
Method: as §2

Ramos [6] = experiment: Polyploidy in B-cell lines (Edu and PI staining, FACS); type: cell-based; details: 5 nM
Method: as §3, §4

[7] = test system: Aurora kinase in MV4-11 cells; experiment: Cell signaling Western blot; type: cell-based, human; details: FIG. 24
Method: Immunoblot assays: Cells were treated with Compound 7 at various concentrations and collected for cell lysates. The total and phosphorylated levels of the indicated proteins were determined by Western Blot.

[8] = test system: Ba/F3 cells transfected with FLT3 ITD-D835Y; experiment: Cytotoxicity in isogenic transfected Ba/F3 cells (Table 4); type: cell-based, Murin; details: Mus musculus, BaF3, read-out: IC50 in Transfected Ba/F3 cells, FLT3 ITD-D835Y
THP-1 (FLT3-WT, t(9:11)) = experiment: Antiproliferative activity (Table 6); type: cell-based; details: Homo sapiens, THP-1, 72 h

T1 sequence (Q06187 whole entry): as the sequence (Q06187 whole entry C481S) above, with S481C counted along it

Cc1cnc(-c2ccc(-c3ccc(NC(=O)Nc4c(F)cc(F)cc4F)cc3F)c3c2C(=O)NC3)[nH]1 [Compound 7, 1-{3-fluoro-4-[7-(5-methyl-1H-imidazol-2-yl)-1-oxo-2,3-dihydro-1H-isoindol-4-yl]-phenyl}-3-(2,4,6-trifluorophenyl)urea]
Inhibition of BTK (reduction in phosphorylated forms) (wild-type BTK): inhibits both wild-type and the C481S mutant form of BTK
Inhibition of BTK (reduction in phosphorylated forms) (C481S BTK): inhibits both wild-type and the C481S mutant form of BTK
IC50 [1]: 9.72 nM
IC50 (Kasumi-1 (FLT3-WT)): 22 nM
IC50 [2]: 0.17 nM
Kd (FLT3(ITD)): 3.1 nM
IC50 [3]: 10 nM
IC50 (Ba/F3-D835G (FLT3-D835G)): 0.12 nM
IC50 (Ramos [4]): 18.4 nM
Polyploidy (>4n) followed by apoptosis (Mino cells): effectively induced polyploidy (>4n) followed by apoptosis
Kd (FLT3(D835H)): 2.2 nM
IC50 (EGFR): > 1000 nM
Inhibition of EGFR (in words) (EGFR): no inhibition
Aurora kinase inhibition (phosphorylation patterns) [5]: effective as an Aurora Kinase inhibitor
IC50 (EOL-1): 0.045 nM
IC50 (Jurkat): 1590 nM
IC50 (MV4-11): 0.238 nM
IC50 (KG-1): 28.7 nM
IC50 (SKM-1): 816 nM
IC50 (HL60): 280 nM
IC50 (NOM0-1): 20.5 nM
IC50 (HEL92.1.7): 4690 nM
IC50 (MUTZ-8): 794 nM
IC50 (THP-1): 2970 nM
Polyploidy (>4n) followed by apoptosis (Ramos [6]): effectively induced polyploidy (>4n) followed by apoptosis
Aurora kinase activity and signaling (Western blot) [7]: inhibits Aurora kinase activity and signaling
IC50 [8]: 19.3 nM
IC50 (THP-1 (FLT3-WT, t(9:11))): 3.88 nM
